Series [1] has as its target T1, CDK1/cycA1 (Homo sapiens, UniProt P06493).
T1 construct: purchased ProQinase GmbH
Kind of series: In vitro kinase assay (PKLight luciferase ATP readout), CDK1. The format is biochemical. Here is the method: (§1) Purified recombinant CDK1/cycA1, CDK2/cycA1, CDK4/cycD1, CDK5/p35NCK, CDK6/cycD1, CDK7/CycH/MAT1, and CDK9/CycT1 were purchased from ProQinase GmbH. Kinase assays were performed according to manufacturer's protocols. Rb-CTF (ProQinase GmbH) (cat number: 0040-0000-6) was used as the kinase substrate for CDK1, CDK2, CDK4, and CDK6 kinases. […] A luciferase assay (PKLight assay; Cambrex) was used to determine ATP remaining at the end of the kinase reaction, which provides a measure of kinase activity, according to the manufacturer's protocols.
(§2) Kinase assays were carried out by incubation of increasing amounts of test compound with purified recombinant CDK-Cyclin complex, followed by measurement of free ATP remaining in the reaction using the luciferase assay kit (PKLight, Cambrex) which therefore provided a measure of inhibition for the specific CDK.
5 μL of 1× kinase buffer (Cell Signalling Technologies) was mixed with 200 ng CDK1, 200 ng CDK2, 50 ng CDK4, 100 ng CDK5, or 200 ng CDK6 with 5 μg Rb-CTF and 300 ng CDK7 or 200 ng CDK9 with 500 μM RNA Poll II CTD peptide. […] The mixture was incubated at 30° C. for 30 minutes. The reaction is stopped with 20 μL of Stop Solution (provided in the PKLight kit) for 10 minutes at room temperature. Then 40 μL of the luciferase mix was added to the reaction mixture which was incubated for a further 10 minutes at room temperature and measured using the Tecan Infinite 2000 plate reader. GraphPad Prism Software was used to generate standard curve and determine the IC50's for each CDK.

The target of series [2] is T2, CDK4/cycD1 (Homo sapiens, UniProt P11802).
T2 construct: purchased ProQinase GmbH
T2 sequence (P11802 whole entry): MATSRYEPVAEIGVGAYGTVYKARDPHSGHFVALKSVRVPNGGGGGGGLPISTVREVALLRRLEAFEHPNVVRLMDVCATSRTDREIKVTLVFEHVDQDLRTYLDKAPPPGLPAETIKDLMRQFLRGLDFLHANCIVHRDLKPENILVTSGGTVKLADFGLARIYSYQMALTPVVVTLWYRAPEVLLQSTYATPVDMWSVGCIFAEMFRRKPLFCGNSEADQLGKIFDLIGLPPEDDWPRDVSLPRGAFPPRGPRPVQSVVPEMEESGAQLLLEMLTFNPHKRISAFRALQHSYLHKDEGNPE
T2 sequence (P24385 whole entry partner): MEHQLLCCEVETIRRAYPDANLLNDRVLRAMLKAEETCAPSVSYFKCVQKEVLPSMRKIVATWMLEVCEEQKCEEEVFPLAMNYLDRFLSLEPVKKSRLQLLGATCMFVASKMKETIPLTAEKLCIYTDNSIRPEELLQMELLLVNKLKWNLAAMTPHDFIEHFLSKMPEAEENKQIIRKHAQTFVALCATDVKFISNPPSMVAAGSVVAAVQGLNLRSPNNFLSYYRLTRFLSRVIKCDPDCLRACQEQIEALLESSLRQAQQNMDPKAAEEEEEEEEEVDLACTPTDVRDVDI
Kind of series: In vitro kinase assay (PKLight luciferase ATP readout), CDK4. It counts as biochemical. As to conditions: ATP at Km; three experiments. The procedure:
as §1, §2
(§3) 5 μL of 1× kinase buffer (Cell Signalling Technologies) was mixed with 200 ng CDK1, 200 ng CDK2, 50 ng CDK4, 100 ng CDK5, or 200 ng CDK6 with 5 μg Rb-CTF and 300 ng CDK7 or 200 ng CDK9 with 500 μM RNA Poll II CTD peptide. […] The mixture was incubated at 30° C. for 30 minutes. […] Then 40 μL of the luciferase mix was added to the reaction mixture which was incubated for a further 10 minutes at room temperature and measured using the Tecan Infinite 2000 plate reader. […]

Series [3] concerns the target T3, CDK5/p35NCK (Homo sapiens, UniProt Q00535).
T3 construct: purchased ProQinase GmbH
The experiment in a line: In vitro kinase assay (PKLight luciferase ATP readout), CDK5. The format is biochemical. The settings on record: ATP at Km; three experiments. Here is the method:
as §1, §2, §3

The target in series [4] is T4, CDK6/cycD1 (Homo sapiens, UniProt Q00534).
T4 construct: purchased ProQinase GmbH
T4 sequence (Q00534 whole entry): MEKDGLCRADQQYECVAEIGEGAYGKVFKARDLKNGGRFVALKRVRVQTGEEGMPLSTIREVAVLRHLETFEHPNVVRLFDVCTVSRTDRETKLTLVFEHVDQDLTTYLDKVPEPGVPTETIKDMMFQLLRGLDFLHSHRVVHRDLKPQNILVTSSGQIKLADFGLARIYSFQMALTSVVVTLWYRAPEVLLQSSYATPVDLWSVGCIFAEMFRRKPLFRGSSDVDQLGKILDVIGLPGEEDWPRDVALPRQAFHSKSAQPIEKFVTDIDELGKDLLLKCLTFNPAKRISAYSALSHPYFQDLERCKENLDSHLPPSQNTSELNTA
T4 sequence (P24385 whole entry partner): as the sequence (P24385 whole entry partner) above
The experiment in a line: In vitro kinase assay (PKLight luciferase ATP readout), CDK6. It counts as biochemical. As to conditions: ATP at Km; three experiments. Here is the method:
as §1, §2, §3

The test system of series [5] is MCF7 cells. The experiment in a line: Cell growth inhibition assay (sulforhodamine B), MCF7. It counts as cell-based. As to conditions: Homo sapiens. The procedure:
(§4) All cells were purchased from the American Type Culture Collection (ATCC) and MCF7 cells were routinely cultured in Dulbecco's Modified Eagle's Medium (DMEM) supplemented with 10% fetal calf serum (FCS) (First Link) and HCT116 cells were routinely cultured in Roswell Park Memorial Instititute Medium (RPMI) supplemented with 10% FCS. Cell growth was assessed using a known sulforhodamine B assay (see, e.g., Skehan et al., 1990).
(§5) MCF-7 cells purchased from ATCC (USA) were routinely passaged in DMEM, supplemented with 10% FCS and HCT116 cells purchased from ATCC (USA) were routinely passaged in RPMI supplemented with 10% FCS and kept in a 37° C. incubator with 5% CO2. The growth assay for both cell lines was performed in the appropriate media using the exact same protocol as described here. For the growth assay, 5000 cells were seeded into each well of 96-well plates in DMEM containing 10% FCS. Test compounds prepared in DMSO were added to the medium at concentrations ranging from 0.00038-100 μM. The cells were incubated for a further 72 hours, at which time they were fixed by the addition of 100 μL/well of ice-cold 40% trichloroacetic acid (TCA). The plates were left for 1 hour at 4° C., washed in water and 100 μL of 0.4% (w/v) sulforhodamine (SRB; Sigma-Aldrich, UK) prepared in 1% acetic acid was added. Plates were washed in 1% acetic acid to remove excess SRB reagent, air dried, and bound dye was solubilized by the addition of 100 μL of 10 mM tris base. The plates were read at 492 nm using a plate reader.

Series [6] has as its system HCT116 cells. The experiment in a line: Cell growth inhibition assay (sulforhodamine B), HCT116. The format is cell-based. As to conditions: Homo sapiens, HCT-116. Here is the method:
as §4, §5

Series [7] relates to human tumor cell lines (NCI60). The experiment in a line: NCI60 cancer cell line screen. It counts as cell-based. The text has this:
To extend the analysis to a more extensive set of cancer cell lines, PPDA-001 was submitted to the National Cancer Institute's Division of Cancer Treatment and Diagnosis in vitro screen of human tumor cell lines (http://dtp.nci.nih.gov/branches/btb/ivclsp.html).
Each line represents one cell line.

The test system of series [8] is HCT116 tumour xenograft. The experiment in a line: HCT116 tumour xenograft study. The format is in vivo, female Balb/c nu/nu mice.
Series [9] has as its system phospho-ER S118 in MCF-7 cells. Kind of series: Immunoblot of ER serine-118 phosphorylation in MCF-7 cells. As to conditions: 1 μmol/L, time course, FIG. 6. It counts as cell-based. The procedure: Cell lysates were prepared by the addition of RIPA buffer (Sigma-Aldrich, cat no: R0278). Immunoblotting was carried out using standard methods (see, e.g., Harlow & Lane, 1988, Antibodies: A Laboratory Manual, Cold Spring Harbor Laboratory Press, USA), with antibodies for the protein or phosphorylation mark indicated. β-actin was used as control for protein loading. The second antibody was HRP-coupled Goat anti Mouse or Rabbit IgG.
A general note: In western blotting, separated proteins are transferred to a membrane and probed.

Molecules are shown by their SMILES. Where a name gives a salt, the structure may show the parent alone. Read-outs that look alike come from different tables or passages of the source. Bounds are passed on as bounds.

T1 sequence (P06493 whole entry): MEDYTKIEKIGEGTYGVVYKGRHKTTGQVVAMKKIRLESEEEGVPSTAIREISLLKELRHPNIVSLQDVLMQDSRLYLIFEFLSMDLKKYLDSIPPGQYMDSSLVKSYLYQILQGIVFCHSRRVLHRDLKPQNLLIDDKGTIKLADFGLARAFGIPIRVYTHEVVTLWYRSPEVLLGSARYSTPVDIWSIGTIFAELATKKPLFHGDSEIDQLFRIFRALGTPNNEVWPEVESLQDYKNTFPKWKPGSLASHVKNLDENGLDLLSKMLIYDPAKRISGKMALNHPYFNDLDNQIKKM
T1 sequence (P78396 whole entry partner): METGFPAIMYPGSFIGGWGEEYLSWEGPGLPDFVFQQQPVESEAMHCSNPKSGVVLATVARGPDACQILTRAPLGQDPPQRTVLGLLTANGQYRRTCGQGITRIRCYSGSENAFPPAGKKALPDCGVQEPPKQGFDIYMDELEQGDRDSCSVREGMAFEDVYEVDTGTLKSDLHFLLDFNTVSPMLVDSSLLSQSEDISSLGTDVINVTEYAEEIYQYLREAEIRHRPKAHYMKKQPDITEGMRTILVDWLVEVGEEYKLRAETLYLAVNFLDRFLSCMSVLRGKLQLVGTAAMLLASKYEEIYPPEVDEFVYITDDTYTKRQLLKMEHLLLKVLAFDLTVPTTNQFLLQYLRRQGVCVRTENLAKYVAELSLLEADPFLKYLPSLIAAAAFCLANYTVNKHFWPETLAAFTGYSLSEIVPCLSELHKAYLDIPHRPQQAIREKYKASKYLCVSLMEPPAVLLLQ
T3 sequence (Q00535 whole entry): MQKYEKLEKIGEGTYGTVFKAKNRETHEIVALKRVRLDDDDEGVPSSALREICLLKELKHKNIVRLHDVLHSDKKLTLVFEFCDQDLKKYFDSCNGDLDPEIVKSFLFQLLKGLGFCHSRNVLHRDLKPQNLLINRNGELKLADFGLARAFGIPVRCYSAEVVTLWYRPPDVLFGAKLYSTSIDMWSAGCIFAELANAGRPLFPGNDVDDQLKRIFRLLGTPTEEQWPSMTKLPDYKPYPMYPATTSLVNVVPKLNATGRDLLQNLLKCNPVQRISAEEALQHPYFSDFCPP
T3 sequence (Q15078 whole entry partner): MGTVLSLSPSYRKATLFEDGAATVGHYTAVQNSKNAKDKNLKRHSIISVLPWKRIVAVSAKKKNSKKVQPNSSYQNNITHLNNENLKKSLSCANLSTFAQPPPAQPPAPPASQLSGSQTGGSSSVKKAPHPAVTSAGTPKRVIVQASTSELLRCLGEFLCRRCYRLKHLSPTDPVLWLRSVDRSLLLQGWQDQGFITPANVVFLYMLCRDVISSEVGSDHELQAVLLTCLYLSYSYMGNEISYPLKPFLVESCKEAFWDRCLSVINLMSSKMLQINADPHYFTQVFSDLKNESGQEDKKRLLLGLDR

For the molecule `CC(C)c1cnn2c(NCc3ccccc3)cc(NC[C@H]3CCNC[C@@H]3O)nc12` [PPDA-001, (3R,4R)-4-(((7-(Benzylamino)-3-isopropylpyrazolo[1,5-a]pyrimidin-5-yl)amino)methyl)piperidin-3-ol hydrochloride], the IC50 in [1] was determined as 1520 nM; in [2], 42100 nM; in series [3] it was 9000 nM; in series [4], 32100 nM. The concentration for 50% growth inhibition (GI50) was 960 nM in series [5] (72 hours, SRB assay, read-out: Growth Inhibition, GI50 MCF7); below 1000 nM in series [5] (read-out: GI50, breast (MCF7) cancer cell line); 630 nM in [6] (72 hours, SRB assay, read-out: Growth Inhibition, GI50 HCT116); below 1000 nM in series [6] (read-out: GI50, colorectal (HCT116) cancer cell line); 280 nM in [7] (mean of all 60 cell lines, read-out: mean GI50 over 60 cancer cell lines); 40 to 2100 nM in series [7] (range over all 60 cell lines, read-out: range GI50 over 60 cancer cell lines). In addition, the “reduction in tumor growth” value in [8] (50 mg/kg/bi-daily and 100 mg/kg once daily PO, compared with the control arms) was 65%. Moreover, the “Animal weight (percent body weight)” value in [8] (PPDA-001 treatment arms (50 mg/kg bi-daily, 100 mg/kg once daily, PO), over the course of the study, vehicle 98%) is on record as 92%. In addition, in series [9], the “phosphorylation of ER at serine-118 (phospho-ER S118)” value is on record as “inhibits phosphorylation of ER at serine-118”.

The term IC50 denotes the concentration that inhibits the measured activity by half. Read a high IC50 as weaker potency in that assay. For orientation: GI50 means the concentration giving 50% growth inhibition.

Values taken from patent US11566029B2, “Pyrazolo[1,5-a]pyrimidine-5,7-diamine compounds as CDK inhibitors and their therapeutic use” (CANCER RESEARCH TECHNOLOGY LIMITED, priority 2014, dated 2023).
